According to patent US20210213081A1, “COMPOSITION FOR PREVENTING, AMELIOREATING, OR TREATING STRESS OR DEPRESSION COMPRISING MEDICINAL HERB EXTRACT AS EFFECTIVE INGREDIENT” (KOREA INSTITUTE OF ORIENTAL MEDICINE, priority 2016, published 2021):

Legend:
[1] = test system: C57BL/6 mouse; assay: Sucrose preference test (SPT) in immobility stress model; format: in vivo; conditions: immobility stress 22 days, 20 mg/kg oral daily, FIG. 4
From the text: As a test animal, 7-week old male C57BL/6 mouse was used after obtaining it from Samtako Bio Korea. The test animals were acclimated for 7 days in the test animal research center, which is a specific pathogen-free facility of Korea Institute of Oriental Medicine. They were divided into the followings 6 groups in total: normal group not exposed to any stress (Control, n=16), stress control group applied with the stress only (Vehicle, n=16), positive control group applied with the stress and commercially available anti-depressant (Fluoxetine, n=16), and test groups applied with the stress and extract of Hibiscus syriacus root (100, 200, or 400 mg/kg, n=16). The test methods were reviewed by Test animal ethics committee of Korea Institute of Oriental Medicine (approval number: 15-102), and as for the breeding and maintenance of the test animals, the animals were placed in an IVC (individually ventilated cage) (5 animals per cage), which has been constantly maintained at temperature of 23±1° C., humidity of 50±10% or so, and light/dark period of 12 hours, based on the regulations for management and use of animals by the Test Animal Research Center of Korea Institute of Oriental Medicine. […]
The sucrose preference test was carried out on Day 1 of the test and after completion of the test. […] The intake preference was calculated as follows.

[2] = test system: C57BL/6 mouse; assay: Forced swimming test (FST) in immobility stress model; format: in vivo; conditions: immobility stress 22 days, 20 mg/kg oral daily, FIG. 5
From the text: (§1) As a test animal, 7-week old male C57BL/6 mouse was used after obtaining it from Samtako Bio Korea. The test animals were acclimated for 7 days in the test animal research center, which is a specific pathogen-free facility of Korea Institute of Oriental Medicine. They were divided into the followings 6 groups in total: normal group not exposed to any stress (Control, n=16), stress control group applied with the stress only (Vehicle, n=16), positive control group applied with the stress and commercially available anti-depressant (Fluoxetine, n=16), and test groups applied with the stress and extract of Hibiscus syriacus root (100, 200, or 400 mg/kg, n=16). […]
To measure the anti-depression effect of an extract of Hibiscus syriacus root, the forced swimming test was carried out, after the completion of the immobility stress test, by using the method of Porsolt, et. al. ([…]). […] Of total 6 minutes, the measurement was not carried out for initial 2 minutes as an acclimation period, while the immobile time of the test animal was measured for the last 4 minutes. […]

[3] = test system: C57BL/6 mouse; assay: Tail suspension test (TST) in immobility stress model; format: in vivo; conditions: immobility stress 22 days, 20 mg/kg oral daily, FIG. 6
From the text: as §1
The method by Can and others was used for the tail suspension test. […] Of total 6 minutes, the measurement was not carried out for initial 2 minutes as an acclimation period, while the immobile time of the test animal was measured for the last 4 minutes. […]

[4] = test system: cortisol; assay: Blood cortisol measurement after immobility stress (competitive enzyme immunoassay); format: in vivo; conditions: mouse blood serum, immobility stress 22 days, 20 mg/kg oral daily, FIG. 7
From the text: as §1
(§2) Upon the completion of the test, the test animal was anesthetized, and blood was collected from the heart and centrifuged (1,000×g, 15 minutes) to obtain blood serum. […] Then, the absorbance at 405 nm was measured by using Micro Spectrophotometer (Molecular Device, Sunnyvale, Calif., USA).

[5] = test system: serotonin; assay: Blood serotonin measurement after immobility stress (competitive enzyme immunoassay); format: in vivo; conditions: mouse blood serum, immobility stress 22 days, 20 mg/kg oral daily, FIG. 8
From the text: as §1
as §2, with “After adding the stop solution (50 μl),” for “Then,”

[6] = test system: SK-N-SH cells; assay: Activity of protecting nerve cells against corticosterone toxicity, MTS assay (cell proliferation); format: cell-based, human; conditions: 0.25 mM corticosterone for 1 hour, versus normal group
Procedure: SK-N-SH cells as human neuroblastoma cell line were obtained from Korean Cell Line Bank, cultured in DMEM (Dulbecco's modified Eagle's medium) medium containing 10% bovine serum and 1% penicillin/streptomycin (37° C., 5% CO2 incubator), and used. Once a cell monolayer is formed, the cells were treated with TrypLE 1× solution to release the cells followed by subculture.
Furthermore, based on the toxicity of corticosterone, the activity of protecting nerve cells in human blastoma was examined. Specifically, on a Corning BioCoat collagen I 96-well plate, SK-N-SH cells were sewn at 3×10^4/well. Thereafter, the cells were pre-treated for 24 hours with an extract of Hibiscus syriacus flower or Hibiscus syriacus root at a concentration of 10, 50, 100, or 200 μg/ml followed by a treatment with 0.25 mM corticosterone for 1 hour to induce oxidative stress. Then, MTS assay was carried out and, by measuring the absorbance using ELISA (enzyme-linked immunosorbent assay) plate reader, the cell proliferation was determined.
As a positive control, a treatment with 10 μM fluoxetine (Sigma, St. Louis, Mo., USA) was carried out instead of the treatment with an extract of Hibiscus syriacus flower or Hibiscus syriacus root.

| Structure (SMILES) | sucrose intake amount compared to stress control group (Vehicle) [1] | immobile time in forced swimming test compared to control group (Vehicle) [2] | immobile time in tail suspension test compared to control group (Vehicle) [3] | cortisol production in blood compared to control group (Vehicle) [4] | serotonin production in blood compared to control group (Vehicle) [5] | cells diminished by treatment with corticosterone [6] [%] |
| --- | --- | --- | --- | --- | --- | --- |
| CNCCC(Oc1ccc(C(F)(F)F)cc1)c1ccccc1 (stereo not drawn) [Fluoxetine, fluoxetine] | increased in significant sense | decreased in significant sense | decreased | decreased in significant sense | increased in significant sense |  |
| C[C@]12C[C@H](O)[C@H]3[C@@H](CCC4=CC(=O)CC[C@@]43C)[C@@H]1CC[C@@H]2C(=O)CO [corticosterone] |  |  |  |  |  | ~50 |
